Experimental data reported in patent US6706664B1, “Benzoxazole compounds, process for the preparation thereof and herbicides” (UBE Industries, Ltd., priority 1999, dated 2004).

What was measured:
Design in all cases: key: 0: normal development; 1: Less damaged; 2: Slightly damaged; 3: Moderately damaged; 4: Severely damaged; 5: All killed
livid amaranth [1] = test: Foliar spread test for upland field; type: in vivo, Amaranthus lividus; settings: foliar spray 500 ppm, 3 weeks, rank vs non-treated
Outline: (§1)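 Post-emergence foliar spray, 500 ppm (wettable powder in water + 0.5% surfactant), on ~2-week-old plants grown in volcanic ash soil; glasshouse, avg 25° C, 3 wk; visual damage score 0–5.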

bulrush = test: Herbicidal test for paddy field; type: in vivo, Scrips juncoides; settings: paddy field pot, 500 g/ha dropwise at 1.5 leaf stage of barnyardgrass, 3 weeks, rank vs non-treated
Outline: (§2)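 Ube alluvial soil in pots flooded to 3 cm water depth, sown with seeds or tubers. Wettable powder diluted in water with 0.05% surfactant was dripped onto the water at 500 g/ha when barnyardgrass reached the 1.5-leaf stage. After 3 weeks in a glasshouse at an average of 25° C, damage was scored 0 (normal) to 5 (all killed) against untreated pots.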

common lambsquartes [2] = test: Foliar spread test for upland field; type: in vivo, Chenopodium album; settings: foliar spray 500 ppm, 3 weeks, rank vs non-treated
Description: (§3) (0: normal development, 1: Less damaged, 2: Slightly damaged, 3: Moderately damaged, 4: Severely damaged, 5: All killed).
(§4) Wagner pots, each having an area of 1/5000 are, were packed with volcanic ash soil and then each seed of corn, soybean, cotton, wheat, solgum, sugar beat, Large crabgrass, barnyardgrass, green foxtail, blackgrass, annual bluegrass, common lambsquartes, livid amaranth, velvetleaf and morning glory was planted, covered with soil and grown in a glass house at an average temperature of […] for about 2 weeks.
(§5) Each wettable powder of the desired compounds (I) shown in Table 1 prepared in accordance with Example 2 was diluted to 500 ppm with water containing a surfactant (0.5%) and then uniformly sprayed on the above respective plants.
(§6) After these plants were controlled in a glass house at an average temperature of 25° C. for 3 weeks, the herbicidal effects thereof were investigated.
(§7) The herbicidal effects were evaluated according to the evaluation method described in the above (1).

green foxtail [3] = test: Foliar spread test for upland field; type: in vivo, Setaria viridis; settings: foliar spray 500 ppm, 3 weeks, rank vs non-treated
Description: as §3, §4, §5, §6, §7

velvetleaf [4] = test: Foliar spread test for upland field; type: in vivo, Abutilon theophrasti; settings: foliar spray 500 ppm, 3 weeks, rank vs non-treated
Outline: as §1

young rice plant = test: Herbicidal test for paddy field; type: in vivo; settings: paddy field pot, 500 g/ha dropwise at 1.5 leaf stage of barnyardgrass, 3 weeks, rank vs non-treated
Outline: as §2

monochoria = test: Herbicidal test for paddy field; type: in vivo, Monochoria vaginalis; settings: paddy field pot, 500 g/ha dropwise at 1.5 leaf stage of barnyardgrass, 3 weeks, rank vs non-treated
Outline: as §2

morning glory = test: Foliar spread test for upland field; type: in vivo, Ipomoea spps.; settings: foliar spray 500 ppm, 3 weeks, rank vs non-treated
Description: as §3, §4, §5, §6, §7

cotton [5] = test: Foliar spread test for upland field; type: in vivo; settings: foliar spray 500 ppm, 3 weeks, rank vs non-treated
Outline: (§8)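 Crops and weeds grown about 2 weeks in volcanic ash soil in a glasshouse, then sprayed with wettable-powder formulations diluted to 500 ppm in water with 0.5% surfactant. After 3 weeks at 25 °C, injury scored visually 0 (normal) to 5 (all killed).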

corn [6] = test: Foliar spread test for upland field; type: in vivo; settings: foliar spray 500 ppm, 3 weeks, rank vs non-treated
Outline: as §8

sugar beat [7] = test: Foliar spread test for upland field; type: in vivo; settings: foliar spray 500 ppm, 3 weeks, rank vs non-treated
Outline: as §8

wheat [8] = test: Foliar spread test for upland field; type: in vivo; settings: foliar spray 500 ppm, 3 weeks, rank vs non-treated
Outline: as §8

solgum [9] = test: Foliar spread test for upland field; type: in vivo; settings: foliar spray 500 ppm, 3 weeks, rank vs non-treated
Outline: as §8

cotton [10] = test: Soil treatment test for upland field; type: in vivo; settings: 500 g/ha, glass house 25° C., 3 weeks
Outline: (§9)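 Pre-emergence: seeds sown in Ube alluvial soil in pots, then soil surface sprayed with wettable-powder formulation diluted in water with 0.05% surfactant at 500 g/ha. Plants kept in glasshouse at average 25° C for 3 weeks; injury scored 0 (normal) to 5 (all killed).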

corn [11] = test: Soil treatment test for upland field; type: in vivo; settings: 500 g/ha, glass house 25° C., 3 weeks
Outline: as §9

soybean [12] = test: Soil treatment test for upland field; type: in vivo; settings: 500 g/ha, glass house 25° C., 3 weeks
Outline: as §9

sugar beat [13] = test: Soil treatment test for upland field; type: in vivo; settings: 500 g/ha, glass house 25° C., 3 weeks
Outline: as §9

wheat [14] = test: Soil treatment test for upland field; type: in vivo; settings: 500 g/ha, glass house 25° C., 3 weeks
Outline: as §9

solgum [15] = test: Soil treatment test for upland field; type: in vivo; settings: 500 g/ha, glass house 25° C., 3 weeks
Outline: as §9

common lambsquartes [16] = test: Soil treatment test for upland field; type: in vivo, Chenopodium album; settings: 500 g/ha, glass house 25° C., 3 weeks
Outline: as §9

barnyardgrass [17] = test: Soil treatment test for upland field; type: in vivo, Echinochloa crusgalli; settings: 500 g/ha, glass house 25° C., 3 weeks
Outline: as §9

velvetleaf [18] = test: Soil treatment test for upland field; type: in vivo, Abutilon theophrasti; settings: 500 g/ha, glass house 25° C., 3 weeks
Outline: as §9

green foxtail [19] = test: Soil treatment test for upland field; type: in vivo, Setaria viridis; settings: 500 g/ha, glass house 25° C., 3 weeks
Outline: as §9

Large crabgrass [20] = test: Soil treatment test for upland field; type: in vivo, Digitaria adscendens; settings: 500 g/ha, glass house 25° C., 3 weeks
Outline: as §9

barnyardgrass [21] = test: Herbicidal test for paddy field; type: in vivo, Echinochloa crusgalli; settings: paddy field pot, 500 g/ha dropwise at 1.5 leaf stage of barnyardgrass, 3 weeks, rank vs non-treated
Experimental: Wagner pots, each having an area of 1/5000 are, were packed with Ube soil (alluvial soil) and planted with seeds or tubers of young rice plant, barnyardgrass, bulrush, flat sedge and monochoria. Then, the pots were filled with water to a depth of 3 cm.
Each wettable powder of the desired compounds (I) shown in Table 1 prepared in accordance with Example 2 was diluted with water containing a surfactant (0.05%) and subjected to dropwise addition treatment by using pipet so that an effective concentration of the compound (I) in each herbicide became 500 g/ha at 1.5 leaf stage of barnyardgrass.
These plants were controlled in a glass house at an average temperature of 25° C. for 3 weeks, and then herbicidal effects thereof were investigated.
The herbicidal effects are evaluated according to the following 6 ranks as compared with non-treated district.
as §3

annual bluegrass = test: Soil treatment test for upland field; type: in vivo, Poa annua; settings: 500 g/ha, glass house 25° C., 3 weeks
Outline: as §9

Large crabgrass [22] = test: Foliar spread test for upland field; type: in vivo, Digitaria adscendens; settings: foliar spray 500 ppm, 3 weeks, rank vs non-treated
Description: as §3, §4, §5, §6, §7

livid amaranth [23] = test: Soil treatment test for upland field; type: in vivo, Amaranthus lividus; settings: 500 g/ha, glass house 25° C., 3 weeks
Outline: as §9

blackgrass = test: Soil treatment test for upland field; type: in vivo, Alopecurus aegualis; settings: 500 g/ha, glass house 25° C., 3 weeks
Outline: as §9

soybean [24] = test: Foliar spread test for upland field; type: in vivo; settings: foliar spray 500 ppm, 3 weeks, rank vs non-treated
Outline: as §8

CCC(Oc1cccc(C#N)c1)c1nc2cc(S(C)(=O)=O)c(C)cc2o1 (centres unmarked) [Compound 491]
Effects Livid amaranth (livid amaranth [1]): 4
Effect Bulrush (bulrush): 3
Effects Common lambsquarters (common lambsquartes [2]): 5
Effects Green foxtail (green foxtail [3]): 2
Effects Velvetleaf (velvetleaf [4]): 3
Effect Young rice plant (young rice plant): 0
Effect Monochoria (monochoria): 5
Effects Morning glory (morning glory): 3
Effects Cotton (cotton [5]): 2
Effects Corn (corn [6]): 1
Effects Sugar beat (sugar beat [7]): 4
Effects Wheat (wheat [8]): 1
Effects Solgum (solgum [9]): 1

CCC(Oc1ccc(F)c(C(F)(F)F)c1)c1nc2cc(F)c(Cl)cc2o1 (centres unmarked) [Compound 493]
Effects Livid amaranth (livid amaranth [1]): 5
Effects Cotton (cotton [10]): 1
Effects Corn (corn [11]): 2
Effects Soybean (soybean [12]): 2
Effects Sugar beat (sugar beat [13]): 5
Effects Wheat (wheat [14]): 2
Effects Solgum (solgum [15]): 2
Effects Common lambsquarters (common lambsquartes [16]): 4
Effects Common lambsquarters (common lambsquartes [2]): 5
Effects Green foxtail (green foxtail [3]): 5
Effects Velvetleaf (velvetleaf [4]): 2
Effects Barnyardgrass (barnyardgrass [17]): 4
Effects Velvetleaf (velvetleaf [18]): 5
Effects Green foxtail (green foxtail [19]): 5
Effects Large crabgrass (Large crabgrass [20]): 5
Effect Monochoria (monochoria): 5
Effect Barnyardgrass (barnyardgrass [21]): 5
Effects Annual bluegrass (annual bluegrass): 5
Effects Large crabgrass (Large crabgrass [22]): 2
Effects Livid amaranth (livid amaranth [23]): 5
Effects Blackgrass (blackgrass): 4
Effects Cotton (cotton [5]): 2
Effects Corn (corn [6]): 2
Effects Sugar beat (sugar beat [7]): 5
Effects Wheat (wheat [8]): 1
Effects Solgum (solgum [9]): 1

CCCC(Oc1ccc(F)c(C(F)(F)F)c1)c1nc2cc(C#N)c(C#N)cc2o1 (centres unmarked) [Compound 318]
Effects Livid amaranth (livid amaranth [1]): 5
Effects Cotton (cotton [10]): 0
Effects Corn (corn [11]): 0
Effects Soybean (soybean [12]): 0
Effects Sugar beat (sugar beat [13]): 5
Effects Wheat (wheat [14]): 0
Effects Solgum (solgum [15]): 0
Effects Common lambsquarters (common lambsquartes [16]): 5
Effects Common lambsquarters (common lambsquartes [2]): 3
Effects Green foxtail (green foxtail [3]): 5
Effects Velvetleaf (velvetleaf [4]): 2
Effects Velvetleaf (velvetleaf [18]): 5
Effects Green foxtail (green foxtail [19]): 4
Effects Large crabgrass (Large crabgrass [20]): 2
Effects Annual bluegrass (annual bluegrass): 4
Effects Livid amaranth (livid amaranth [23]): 5
Effects Blackgrass (blackgrass): 2
Effects Corn (corn [6]): 1
Effects Soybean (soybean [24]): 2
Effects Sugar beat (sugar beat [7]): 5
Effects Wheat (wheat [8]): 1
Effects Solgum (solgum [9]): 1

CCCC(Oc1ccc(F)c(C(F)(F)F)c1)c1nc2cc(S(C)(=O)=O)c(C)cc2o1 (centres unmarked) [Compound 488]
Effects Livid amaranth (livid amaranth [1]): 5
Effects Cotton (cotton [10]): 1
Effects Corn (corn [11]): 0
Effects Soybean (soybean [12]): 0
Effects Sugar beat (sugar beat [13]): 5
Effects Wheat (wheat [14]): 0
Effects Solgum (solgum [15]): 0
Effects Common lambsquarters (common lambsquartes [16]): 4
Effects Common lambsquarters (common lambsquartes [2]): 3
Effects Velvetleaf (velvetleaf [4]): 3
Effects Barnyardgrass (barnyardgrass [17]): 2
Effects Velvetleaf (velvetleaf [18]): 5
Effects Green foxtail (green foxtail [19]): 5
Effects Large crabgrass (Large crabgrass [20]): 5
Effects Annual bluegrass (annual bluegrass): 5
Effects Morning glory (morning glory): 2
Effects Livid amaranth (livid amaranth [23]): 5
Effects Corn (corn [6]): 1
Effects Soybean (soybean [24]): 2
Effects Sugar beat (sugar beat [7]): 5
Effects Wheat (wheat [8]): 1
Effects Solgum (solgum [9]): 1
